Marks after values point to notes of the source that are not given here.
Experiments:
[1] = tested on: A549 human pulmonary carcinoma; test: A549 human pulmonary carcinoma xenograft in nude mice; assay type: in vivo, BALB/c (nu/nu) athymic nude mice; conditions: 20 mg/kg/day i.p., 40 days
Description: Healthy BALB/c (nu/nu) athymic nude mice (SPF, 4-5 weeks old, weighting 18-22 g) were purchased from Shanghai Tumor Academe of China Medical Academy of Science. In the first experiment, female was used. In the second experiment, male was used.
Select A549 human pulmonary carcinoma xenografts of diameter longer than 1 cm with good growth on nude mice. Aseptically excise the tumor mass, cut into pieces of 2-4 mm^3 and submerged in RPMI1640. Pulmonary carcinoma nude mice model was prepared by transplanting the tumor mass hypodermally to the back of healthy nude mice near to the neck via an incision at the ventral thorax.
The nude mice bearing A549 xenografts were randomly divided into groups of: saline control (0.2 ml/day), YSV groups of different dosages, and Cy control (0.2 mg/kg/day). The test substances were dissolved in 0.2 ml saline and administered intraperitoneally to the mice starting from the day after the transplantation, once per day for 40 consecutive days.
The general condition of the mice was observed daily. The mice were weighed every 3-4 days and the volume of the tumor was measured:
V=(⅙)πXYZ, where X, Y, and Z were the diameters of the tumor on the 3 planes.
The day after the last injection, the tumors were excised, weighted, and the volume measured. The tumors were examined for signs of necrosis. Tumor inhibition index=(average tumor weight of saline group−average tumor weight of test group)/average tumor weight of saline group×100%)
Statistical analysis was performed with SPSS software using one-way ANOVA analysis.

[2] = tested on: melanoma B16; test: Growth of C57BL/6 mice-transplanted melanoma B16; assay type: in vivo; conditions: 20 mg/kg/day intraperitoneal, 20 consecutive days
Description: B16 cells were maintained in RPMI-1640 medium with 10% FBS at 37° C., 5% CO2. Mouse B16 melanoma culture at log phase was adjusted to 2.5×10^6/ml with Hank's solution. 0.2 ml of this was subcutaneously injected to the right axilla of healthy C57 BL/6 mice to form the melanoma mice model. […] From the next day after the tumor implantation, the general conditions of the mice and the growth of the tumor were observed daily. On the next day after the last test substance administration, the tumors were extirpated and the weights of tumor were measured. […] The results were presented as arithmetic mean ±SD. Statistical analysis was performed using the ANOVA test of the SPSS software.

SMILES: O=P1(N(CCCl)CCCl)NCCCO1 (centres unmarked) [Cyclophosphamide, reference compound]
- Tumor inhibition index (%) ([1]; experiment 1, female nude mice): 39.8%
- Tumor volume (cm^3) ([1]; experiment 1, female nude mice, saline 1.87 ± 1.10): 1.02 ± 0.47* cm^3
- Tumor weight ([1]; experiment 1, female nude mice, saline 2.49 ± 1.02): 1.50 ± 0.75 g
- Tumor inhibition index (%) ([1]; experiment 2, male nude mice): 51.9%
- Tumor volume (cm^3) ([1]; experiment 2, male nude mice, saline 1.34 ± 0.69): 0.49 ± 0.34* cm^3
- Tumor weight ([1]; experiment 2, male nude mice, saline 1.51 ± 0.79): 0.73 ± 0.42 g
- The Inhibition rate (%) [2]: 81.5%
- Tumor weight ([2]; saline 2.64 ± 0.68): 0.49 ± 0.68 g
